Where two headings read alike, the source gives them in different places.
Columns and labels:
in vivo = conditions: rhesus monkey, iv, 1 mg/kg
Experimental: After single intravenous administration, the monkey blood was collected at the BPRC just before dosing, and at 0.05, 0.15, 0.5, 4, 6, 8, 24, 48 and 264 h after dosing. After oral administration, the monkey blood was collected at the BPRC on the first and last day of dosing just before dosing and at 1, 2, 4, 6, 8 and 24 h after dosing that day. Moreover, blood samples were taken on days 3, 6 and 7 after infection just before dosing. For the study at WRAIR, the monkey blood was collected just before dosing and at 1, 4, 8 and 24 h after the first day of dosing and before dosing and at 2, 5, 8, 24 and 96 h after the last day of dosing. Furthermore, blood samples were taken on days 0, 2, 5 and 8 after infection just before dosing. […] A volume of 1 ml blood was collected into a blood collection tube coated with EDTA as anti-coagulant. Within 1 h after collection, the blood samples were centrifuged in a precooled centrifuge for 10 min at 1,500g (4 °C). Within 2 h after blood collection, the plasma samples were stored at −80 °C until shipment. Individual plasma concentration–time profiles were processed for a non-compartmental pharmacokinetics analysis using Phoenix WinNonlin v.6.3. (Certara).

HCV Genotype 1b replicon = experiment: microbe, parasite or virus in culture; format: cell-based; conditions: Hepatitis C virus
DENV-2 Asian I Thailand = format: cell-based; conditions: T108I in NS4B
HBV replicon = experiment: microbe, parasite or virus in culture; format: cell-based; conditions: Hepatitis B virus
[1] = system: DENV-2 Asian America Martinique; format: cell-based; conditions: T108I in NS4B

SMILES: COc1cc(N[C@H](C(=O)c2c[nH]c3ccc(OC(F)(F)F)cc23)c2ccc(Cl)cc2OC)cc(S(C)(=O)=O)c1 [JNJ-1802]
- AUC(0-inf) (in vivo; female, in vivo): 11800 ng·h/mL
- AUC(0-t) (in vivo; female, plasma): 6730 ng·h/mL
- clearance (in vivo; female, plasma): 1.67 ± 0.74 mL/min/kg
- half-life (in vivo; female, plasma): 50 ± 12 h
- Vdssp (in vivo; in vivo): 3.93 ± 1.18 L/kg
- EC50 (HCV Genotype 1b replicon): 5.5 µM
- EC50 (HCV Genotype 1b replicon; read-out: EC50, Mean): 5.45 µM
- EC90 (HCV Genotype 1b replicon; read-out: EC90, Mean): 20.3 µM
- EC50 (DENV-2 Asian I Thailand): 0.0014 ± 0.00034 µM
- EC90 (DENV-2 Asian I Thailand): 0.00278 ± 3.7e-05 µM
- EC50 (HBV replicon; HepG2.117): 10 µM
- EC50 (HBV replicon; HepG2.117, read-out: EC50, Mean): 9.96 µM
- EC90 (HBV replicon; HepG2.117, read-out: EC90, Mean): 12.5 µM
- EC50 [1]: 0.0008 ± 0.0007 µM
- EC90 [1]: 0.00188 ± 0.00137 µM

Source: PMC10033419, “Blocking NS3–NS4B interaction inhibits dengue virus in non-human primates” (Nature, 2023)
